From ChEMBL document CHEMBL6120985, “Discovery of a potent PARP1 PROTAC as a chemosensitizer for the treatment of colorectal cancer” (Eur J Med Chem, 2025)
Active and inactive are the calls of the source. The calls are words filed in the database; no cut-off is given here.

Experiments:
HCT-116 [1] = assay: Effect on BRCA protein level in human HCT-116 cells at 1 uM in presence of SN-38 by Western blot analysis; type: functional, cell-based
HCT-116 [2] = assay: Effect on Rad51 protein level in human HCT-116 cells at 1 uM in presence of SN-38 by Western blot analysis; type: functional, cell-based
HCT-116 [3] = assay: Synergistic antiproliferative activity against human HCT-116 cells assessed as combination index at 2 uM measured after 72 hrs in presence of 2.5 nM of SN-38 by CCK-8 method; type: functional
HCT-116 [4] = assay: Synergistic antiproliferative activity against human HCT-116 cells assessed as combination index at 2 uM measured after 72 hrs in presence of 10 nM of SN-38 by CCK-8 method; type: functional
HCT-116 [5] = assay: Effect on p53 protein level in human HCT-116 cells at 1 uM in presence of SN-38 by Western blot analysis; type: functional, cell-based
HCT-116 [6] = assay: Downregulation of HSPA2 level in human HCT-116 cells at 1 uM in presence of SN-38 by KEGG enrichment analysis; type: functional, cell-based
[7] = target: T1, Protein cereblon/Poly [ADP-ribose] polymerase 1 (Homo sapiens, UniProt P09874+Q96SW2); assay: PROTAC activity at CRBN/PARP1 in human HCT-116 cells assessed as degradation of PARP1 measured after 24 hrs; type: cell-based
Target sequence in this assay (P09874 whole entry): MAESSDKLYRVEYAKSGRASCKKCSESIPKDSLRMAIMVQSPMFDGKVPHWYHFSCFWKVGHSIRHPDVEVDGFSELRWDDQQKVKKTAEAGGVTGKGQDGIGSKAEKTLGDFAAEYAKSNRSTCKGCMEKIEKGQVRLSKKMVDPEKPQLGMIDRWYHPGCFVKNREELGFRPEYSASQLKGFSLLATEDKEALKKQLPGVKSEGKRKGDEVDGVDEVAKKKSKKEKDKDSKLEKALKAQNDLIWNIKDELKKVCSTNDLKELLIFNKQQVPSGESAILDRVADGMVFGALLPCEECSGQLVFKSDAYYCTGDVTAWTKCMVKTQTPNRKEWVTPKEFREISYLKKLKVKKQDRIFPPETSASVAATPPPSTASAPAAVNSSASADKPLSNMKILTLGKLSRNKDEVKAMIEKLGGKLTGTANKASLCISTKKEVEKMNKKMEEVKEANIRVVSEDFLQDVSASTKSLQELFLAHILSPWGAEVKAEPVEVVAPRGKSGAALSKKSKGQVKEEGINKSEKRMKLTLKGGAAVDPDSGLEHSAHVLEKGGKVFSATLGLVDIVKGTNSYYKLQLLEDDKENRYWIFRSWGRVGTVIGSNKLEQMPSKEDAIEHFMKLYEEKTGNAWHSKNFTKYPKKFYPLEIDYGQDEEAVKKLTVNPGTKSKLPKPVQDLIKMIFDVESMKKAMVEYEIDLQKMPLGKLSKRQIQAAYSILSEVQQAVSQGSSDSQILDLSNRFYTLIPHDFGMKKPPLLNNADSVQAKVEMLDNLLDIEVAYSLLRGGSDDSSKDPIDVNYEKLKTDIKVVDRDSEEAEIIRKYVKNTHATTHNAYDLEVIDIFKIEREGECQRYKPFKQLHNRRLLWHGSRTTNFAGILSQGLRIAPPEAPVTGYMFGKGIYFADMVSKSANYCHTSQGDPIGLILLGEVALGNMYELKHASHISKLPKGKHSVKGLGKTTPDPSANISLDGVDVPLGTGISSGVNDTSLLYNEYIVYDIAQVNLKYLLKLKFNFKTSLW
Target sequence in this assay (Q96SW2 whole entry): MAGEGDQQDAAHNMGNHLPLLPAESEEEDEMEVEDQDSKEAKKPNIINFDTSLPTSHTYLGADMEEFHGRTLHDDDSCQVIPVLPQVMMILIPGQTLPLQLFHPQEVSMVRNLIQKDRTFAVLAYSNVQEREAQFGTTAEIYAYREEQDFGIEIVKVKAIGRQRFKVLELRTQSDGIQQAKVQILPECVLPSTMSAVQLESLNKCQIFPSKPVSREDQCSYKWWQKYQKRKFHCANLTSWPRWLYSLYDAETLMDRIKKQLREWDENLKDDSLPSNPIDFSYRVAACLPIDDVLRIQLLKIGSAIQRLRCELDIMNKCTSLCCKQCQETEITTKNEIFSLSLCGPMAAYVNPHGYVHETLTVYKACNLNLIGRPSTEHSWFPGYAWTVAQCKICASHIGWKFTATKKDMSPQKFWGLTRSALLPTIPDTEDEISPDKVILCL

HCT-116 [8] = assay: Upregulation of CDK1 level in human HCT-116 cells at 1 uM in presence of SN-38 by Western blot analysis; type: functional, cell-based
HCT-116 [9] = assay: Upregulation of CHK1 level in human HCT-116 cells at 1 uM in presence of SN-38 by Western blot analysis; type: functional, cell-based
HCT-116 [10] = assay: Induction of apoptosis in human HCT-116 cells assessed as early apoptotic cells at 1 uM measured after 72 hrs in presence of SN-38 by annexin V/FITC and PI staining based flow cytometry analysis (reference value: 3.43%); type: functional
SW-620 [11] = assay: Potency index, ratio of SK-575 IC50 to test compound IC50 for cytotoxicity against human SW620 cells assessed as inhibition of cell growth measured after 72 hrs by CCK-8 method; type: functional
HCT-116 [12] = assay: Synergistic antiproliferative activity against human HCT-116 cells assessed as combination index at 0.5 uM measured after 72 hrs in presence of 5 nM of SN-38 by CCK-8 method; type: functional
HCT-116 [13] = assay: Induction of apoptosis in human HCT-116 cells assessed as viable cells at 1 uM measured after 72 hrs in presence of SN-38 by annexin V/FITC and PI staining based flow cytometry analysis (reference value: 89.6%); type: functional; conditions: read-out: Activity
HCT-116 [14] = assay: Downregulation of KRT1 level in human HCT-116 cells at 1 uM in presence of SN-38 by KEGG enrichment analysis; type: functional, cell-based
HCT-116 [15] = assay: Induction of cell cycle arrest in human HCT-116 cells assessed as accumulation of cells at G2/M phase at 1 uM measured after 72 hrs in presence of SN-38 by PI staining based flow cytometry analysis; type: functional
[16] = target: T1, Protein cereblon/Poly [ADP-ribose] polymerase 1; assay: PROTAC activity at CRBN/PARP1 in human RKO cells assessed as degradation of PARP1 at upto 10 uM measured after 24 hrs relative to control; type: cell-based
Target sequence in this assay (P09874 2-1014 limits assumed): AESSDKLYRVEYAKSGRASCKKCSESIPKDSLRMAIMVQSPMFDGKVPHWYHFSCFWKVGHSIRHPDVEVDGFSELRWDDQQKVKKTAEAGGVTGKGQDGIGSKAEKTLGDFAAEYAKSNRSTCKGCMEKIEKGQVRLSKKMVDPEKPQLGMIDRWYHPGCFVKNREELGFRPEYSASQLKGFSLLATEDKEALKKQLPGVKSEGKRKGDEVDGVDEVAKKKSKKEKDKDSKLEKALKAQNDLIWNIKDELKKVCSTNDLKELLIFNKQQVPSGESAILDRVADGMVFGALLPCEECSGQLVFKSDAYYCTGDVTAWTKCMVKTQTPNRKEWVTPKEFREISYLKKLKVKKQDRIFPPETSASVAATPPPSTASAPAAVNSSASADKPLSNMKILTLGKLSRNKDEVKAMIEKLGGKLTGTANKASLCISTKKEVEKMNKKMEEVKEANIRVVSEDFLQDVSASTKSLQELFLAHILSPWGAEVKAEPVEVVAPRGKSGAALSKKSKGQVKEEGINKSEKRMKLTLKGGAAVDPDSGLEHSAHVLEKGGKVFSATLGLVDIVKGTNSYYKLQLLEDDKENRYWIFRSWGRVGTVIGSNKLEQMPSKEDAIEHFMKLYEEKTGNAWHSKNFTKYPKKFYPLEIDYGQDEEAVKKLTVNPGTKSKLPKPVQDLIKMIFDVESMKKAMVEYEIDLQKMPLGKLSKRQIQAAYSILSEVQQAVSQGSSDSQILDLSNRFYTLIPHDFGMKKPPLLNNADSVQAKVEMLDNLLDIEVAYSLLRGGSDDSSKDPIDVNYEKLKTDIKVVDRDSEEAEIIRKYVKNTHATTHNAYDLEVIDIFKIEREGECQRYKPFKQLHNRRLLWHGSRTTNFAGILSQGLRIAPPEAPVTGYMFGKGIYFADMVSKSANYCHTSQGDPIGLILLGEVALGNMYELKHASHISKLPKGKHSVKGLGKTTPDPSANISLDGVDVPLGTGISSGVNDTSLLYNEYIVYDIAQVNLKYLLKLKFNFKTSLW
Target sequence in this assay (Q96SW2 whole entry partner): as the sequence (Q96SW2 whole entry) above

HCT-116 [17] = assay: Induction of apoptosis in human HCT-116 cells assessed as late apoptotic cells at 1 uM measured after 72 hrs by annexin V/FITC and PI staining based flow cytometry analysis (reference value: 6.80%); type: functional
HCT-116 [18] = assay: Effect on BRCA level in human HCT-116 cells at 1 uM in presence of SN-38 by Western blot analysis; type: functional, cell-based
[19] = target: T1, Protein cereblon/Poly [ADP-ribose] polymerase 1; assay: PROTAC activity at CRBN/PARP1 in human HCT-116 cells assessed as degradation of PARP1; type: cell-based
Target sequence in this assay (P09874 whole entry): as the sequence (P09874 whole entry) above
Target sequence in this assay (Q96SW2 whole entry): as the sequence (Q96SW2 whole entry) above

HCT-116 [20] = assay: Synergistic antiproliferative activity against human HCT-116 cells assessed as combination index at 1 uM measured after 72 hrs in presence of 1.25 nM of SN-38 by CCK-8 method; type: functional
HCT-116 [21] = assay: Antagonistic antiproliferative activity against human HCT-116 cells assessed as combination index at 2 uM measured after 72 hrs in presence of 0.625 nM of SN-38 by CCK-8 method; type: functional
[22] = target: T1, Protein cereblon/Poly [ADP-ribose] polymerase 1; assay: PROTAC activity at CRBN/PARP1 in human HCT-116 cells assessed as degradation of PARP1 at 1 uM in presence of MG132; type: cell-based
Target sequence in this assay (P09874 2-1014 limits assumed): as the sequence (P09874 2-1014 limits assumed) above
Target sequence in this assay (Q96SW2 whole entry partner): as the sequence (Q96SW2 whole entry) above

HCT-116 [23] = assay: Synergistic antiproliferative activity against human HCT-116 cells assessed as combination index at 4 uM measured after 72 hrs in presence of 2.5 nM of SN-38 by CCK-8 method; type: functional
HCT-116 [24] = assay: Synergistic antiproliferative activity against human HCT-116 cells assessed as combination index at 4 uM measured after 72 hrs in presence of 5 nM of SN-38 by CCK-8 method; type: functional
LoVo = assay: Cytotoxicity against human LoVo cells assessed as inhibition of cell growth measured after 72 hrs by CCK-8 method; type: functional, cell-based
[25] = target: Protein cereblon/Poly [ADP-ribose] polymerase 2 (Homo sapiens, UniProt Q9UGN5+Q96SW2); assay: PROTAC activity at CRBN/PARP2 in human HCT-116 cells assessed as degradation of PARP2; type: cell-based
HCT-116 [26] = assay: Synergistic antiproliferative activity against human HCT-116 cells assessed as combination index at 0.5 uM measured after 72 hrs in presence of 10 nM of SN-38 by CCK-8 method; type: functional
HCT-116 [27] = assay: Induction of apoptosis in human HCT-116 cells assessed as necrotic cells at 1 uM measured after 72 hrs in presence of SN-38 by annexin V/FITC and PI staining based flow cytometry analysis (reference value: 0.16%); type: functional
HCT-116 [28] = assay: Antagonistic antiproliferative activity against human HCT-116 cells assessed as combination index at 2 uM measured after 72 hrs in presence of 1.25 nM of SN-38 by CCK-8 method; type: functional
HCT-116 [29] = assay: Upregulation of HMCN1 level in human HCT-116 cells at 1 uM in presence of SN-38 by KEGG enrichment analysis; type: functional, cell-based
HCT-116 [30] = assay: Synergistic antiproliferative activity against human HCT-116 cells assessed as combination index at 1 uM measured after 72 hrs in presence of 10 nM of SN-38 by CCK-8 method; type: functional
SW-620 [31] = assay: Cytotoxicity against human SW620 cells assessed as inhibition of cell growth measured after 72 hrs by CCK-8 method; type: functional, cell-based; conditions: SW-620, 72 h
HCT-116 [32] = assay: Induction of apoptosis in human HCT-116 cells assessed as late apoptotic cells at 1 uM measured after 72 hrs in presence of SN-38 by annexin V/FITC and PI staining based flow cytometry analysis (reference value: 6.80%); type: functional
HCT-116 [33] = assay: Effect on Ku70 protein level in human HCT-116 cells at 1 uM in presence of SN-38 by Western blot analysis; type: functional, cell-based
HCT-116 [34] = assay: Synergistic antiproliferative activity against human HCT-116 cells assessed as combination index at 2 uM measured after 72 hrs in presence of 5 nM of SN-38 by CCK-8 method; type: functional

Sequence of Protein cereblon/Poly [ADP-ribose] polymerase 2 (Q9UGN5 whole entry): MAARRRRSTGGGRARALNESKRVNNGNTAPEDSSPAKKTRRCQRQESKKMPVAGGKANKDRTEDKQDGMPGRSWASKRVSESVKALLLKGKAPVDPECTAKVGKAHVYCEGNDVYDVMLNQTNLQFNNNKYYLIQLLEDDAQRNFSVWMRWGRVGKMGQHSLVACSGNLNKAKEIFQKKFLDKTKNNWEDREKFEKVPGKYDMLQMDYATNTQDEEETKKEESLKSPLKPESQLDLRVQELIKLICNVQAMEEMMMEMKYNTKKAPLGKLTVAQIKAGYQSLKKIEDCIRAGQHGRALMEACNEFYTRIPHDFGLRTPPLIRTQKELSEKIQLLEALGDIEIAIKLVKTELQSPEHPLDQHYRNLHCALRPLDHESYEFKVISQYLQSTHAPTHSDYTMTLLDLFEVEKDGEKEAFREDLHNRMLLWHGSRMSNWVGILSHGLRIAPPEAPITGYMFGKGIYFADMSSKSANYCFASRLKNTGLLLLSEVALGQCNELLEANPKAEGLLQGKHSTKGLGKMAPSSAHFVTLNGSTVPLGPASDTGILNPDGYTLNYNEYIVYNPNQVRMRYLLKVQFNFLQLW
Sequence of Protein cereblon/Poly [ADP-ribose] polymerase 2 (Q96SW2 whole entry): as the sequence (Q96SW2 whole entry) above

**Q.** How did the Activity (HCT-116 [1]) turn out when `NC(=O)c1cccc2cn(-c3ccc([C@@H]4CCCN(CCC5CCN(CCC6CCN(CC7CCN(c8ccc9c(c8)C(=O)N(C8CCC(=O)NC8=O)C9=O)CC7)CC6)CC5)C4)cc3)nc12` (stereo not given in full) was run?
**A.** The Activity was “inactive”.

**Q.** And the Activity (HCT-116 [2])?
**A.** The Activity was “inactive”.

**Q.** What about the CI (HCT-116 [3]) of the same molecule?
**A.** The CI was 0.856.

**Q.** What about the CI (HCT-116 [4]) of the same molecule?
**A.** The CI was 0.766.

**Q.** And the Activity (HCT-116 [5])?
**A.** The Activity was “inactive”.

**Q.** And the Activity (HCT-116 [6])?
**A.** Its Activity is “Active”.

**Q.** What about the DC50 [7] of the same molecule?
**A.** The DC50 was 58.1 nM.

**Q.** And the Activity (HCT-116 [8])?
**A.** The Activity was “Active”.

**Q.** And the Activity (HCT-116 [9])?
**A.** Its Activity is “Active”.

**Q.** And the Activity (HCT-116 [10])?
**A.** Its Activity is 11.9%.

**Q.** What about the “Ratio IC50” value (SW-620 [11]) of the same molecule?
**A.** The value was <6.

**Q.** What about the CI (HCT-116 [12]) of the same molecule?
**A.** The CI was 0.756.

**Q.** And the viability at 1 µM (HCT-116 [13])?
**A.** The viability at 1 µM was 58.2%.

**Q.** And the Activity (HCT-116 [14])?
**A.** The Activity was “Active”.

**Q.** What about the Activity (HCT-116 [15]) of the same molecule?
**A.** The Activity was “Active”.

**Q.** What about the Emax [16] of the same molecule?
**A.** Its Emax is 95.9%.

**Q.** And the Activity (HCT-116 [17])?
**A.** Its Activity is 10.4%.

**Q.** What about the Activity (HCT-116 [18]) of the same molecule?
**A.** Its Activity is “inactive”.

**Q.** And the DC50 [19]?
**A.** Its DC50 is 30 nM.

**Q.** And the CI (HCT-116 [20])?
**A.** The CI was 0.969.

**Q.** What about the CI (HCT-116 [21]) of the same molecule?
**A.** The CI was 1.241.

**Q.** What about the Activity [22] of the same molecule?
**A.** The Activity was “inactive”.

**Q.** What about the CI (HCT-116 [23]) of the same molecule?
**A.** Its CI is 0.545.

**Q.** What about the CI (HCT-116 [24]) of the same molecule?
**A.** The CI was 0.457.

**Q.** What about the IC50 (LoVo) of the same molecule?
**A.** The IC50 was 2840 nM.

**Q.** What about the DC50 [25] of the same molecule?
**A.** The DC50 was 19100 nM.

**Q.** And the CI (HCT-116 [26])?
**A.** Its CI is 0.753.

**Q.** And the Activity (HCT-116 [27])?
**A.** Its Activity is 10.2%.

**Q.** What about the CI (HCT-116 [28]) of the same molecule?
**A.** The CI was 1.092.

**Q.** What about the Activity (HCT-116 [29]) of the same molecule?
**A.** Its Activity is “Active”.

**Q.** And the CI (HCT-116 [30])?
**A.** The CI was 0.698.

**Q.** What about the IC50 (SW-620 [31]) of the same molecule?
**A.** Its IC50 is 1630 nM.

**Q.** What about the Activity (HCT-116 [32]) of the same molecule?
**A.** The Activity was 19.7%.

**Q.** What about the Activity (HCT-116 [33]) of the same molecule?
**A.** Its Activity is “inactive”.

**Q.** What about the CI (HCT-116 [34]) of the same molecule?
**A.** The CI was 0.752.
